# Measured values: paper PMC10257182, “Discovery of senolytics using machine learning” (Nature Communications, 2023)
# Where two headings read alike, the source gives them in different places.
# Key:
# Assay type in all cases: cell-based, human
# [1] = test system: non-senescent control IMR90 ER:RAS cells; assay: Nuclei count (Hoechst, high content imaging) senolytic assay, OIS model, non-senescent control cells; conditions: Homo sapiens
# Method in brief: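 Senolytic read-out as total nuclei per well by automated Hoechst imaging after 72 h compound exposure (10 μM to 10 nM, 10-point […], triplicate), relative to untreated controls. Paired cultures: IMR90 ER:RAS kept non-senescent or made senescent with 100 nM final 4-OHT; ouabain served as positive control.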
# [2] = test system: non-senescent control A549 cells; assay: Nuclei count senolytic assay, TIS model, non-senescent control cells; conditions: Homo sapiens, A549, Control cells, mean, read-out: Mean % Cell Survival
# Method in brief: (§1)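 Nuclei counted by Hoechst 33342 imaging after fixation, following 72 h treatment with compound at 10 nM–10 μM (10-point […], triplicates). Targets were control A549 cells and A549 rendered senescent by 48 h 100 μM etoposide plus 3 days recovery.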
# [3] = test system: senescent A549 cells (etoposide-induced); assay: Nuclei count senolytic assay, therapy-induced senescence (TIS) model, senescent cells; conditions: Homo sapiens, A549, Senescent cells, mean, read-out: Mean % Cell Survival
# Method in brief: as §1
structure (smiles),measurement,setting,value
"COc1cc(/C=C/C(=O)O[C@H]2CC[C@]34C[C@]35CC[C@]3(C)[C@@H]([C@H](C)CCC=C(C)C)CC[C@@]3(C)[C@@H]5CC[C@H]4C2(C)C)ccc1O [Gamma oryzanol, gamma oryzanol]",viability at 10 µM,"[1]; IMR-90, 72 h, Control, log (dose) [M] -5, 72 h, mean n=3 (Fig 3C), read-out: Mean % Cell Survival",87.1%
same,viability at 4.677 µM,"[1]; IMR-90, 72 h, Control, log (dose) [M] -5.33, 72 h, mean n=3 (Fig 3C), read-out: Mean % Cell Survival",92.9%
same,viability at 2.188 µM,"[1]; IMR-90, 72 h, Control, log (dose) [M] -5.66, 72 h, mean n=3 (Fig 3C), read-out: Mean % Cell Survival",89.6%
same,viability at 1 µM,"[1]; IMR-90, 72 h, Control, log (dose) [M] -6, 72 h, mean n=3 (Fig 3C), read-out: Mean % Cell Survival",86.2%
same,viability at 0.4677 µM,"[1]; IMR-90, 72 h, Control, log (dose) [M] -6.33, 72 h, mean n=3 (Fig 3C), read-out: Mean % Cell Survival",98.4%
same,viability at 0.2188 µM,"[1]; IMR-90, 72 h, Control, log (dose) [M] -6.66, 72 h, mean n=3 (Fig 3C), read-out: Mean % Cell Survival",99.1%
same,viability at 0.1 µM,"[1]; IMR-90, 72 h, Control, log (dose) [M] -7, 72 h, mean n=3 (Fig 3C), read-out: Mean % Cell Survival",109%
same,viability at 0.04677 µM,"[1]; IMR-90, 72 h, Control, log (dose) [M] -7.33, 72 h, mean n=3 (Fig 3C), read-out: Mean % Cell Survival",133%
same,viability at 0.02188 µM,"[1]; IMR-90, 72 h, Control, log (dose) [M] -7.66, 72 h, mean n=3 (Fig 3C), read-out: Mean % Cell Survival",118%
same,viability at 0.01 µM,"[1]; IMR-90, 72 h, Control, log (dose) [M] -8, 72 h, mean n=3 (Fig 3C), read-out: Mean % Cell Survival",115%
same,viability at 0.2188 µM,"[1]; IMR-90, Control cells, log (dose) [M] -6.66, individual replicates, SUP FIG 4C, read-out: % Cell Survival",93.2%
same,viability at 10 µM,"[1]; IMR-90, Control, log (dose) [M] -5, read-out: % Cell Survival",113%
same,viability at 4.68 µM,"[1]; IMR-90, Control, log (dose) [M] -5.33, read-out: % Cell Survival",105%
same,viability at 0.1 µM,"[1]; IMR-90, Control, log (dose) [M] -7, read-out: % Cell Survival",103%
same,viability at 0.04677 µM,"[1]; IMR-90, Control, log (dose) [M] -7.33, read-out: % Cell Survival",103%
same,viability at 0.0219 µM,"[1]; IMR-90, Control, log (dose) [M] -7.66, read-out: % Cell Survival",104%
same,viability at 0.01 µM,"[1]; IMR-90, Control, log (dose) [M] -8, read-out: % Cell Survival",100%
same,viability at 10 µM,[2]; log (dose) [M] -5,37.8%
same,viability at 4.68 µM,[2]; log (dose) [M] -5.33,35%
same,viability at 2.19 µM,[2]; log (dose) [M] -5.66,87.4%
same,viability at 1 µM,[2]; log (dose) [M] -6,76.1%
same,viability at 0.468 µM,[2]; log (dose) [M] -6.33,75.3%
same,viability at 0.219 µM,[2]; log (dose) [M] -6.66,109%
same,viability at 0.1 µM,[2]; log (dose) [M] -7,105%
same,viability at 0.0468 µM,[2]; log (dose) [M] -7.33,103%
same,viability at 0.0219 µM,[2]; log (dose) [M] -7.66,106%
same,viability at 0.01 µM,[2]; log (dose) [M] -8,103%
same,viability at 10 µM,[3]; log (dose) [M] -5,96.8%
same,viability at 4.68 µM,[3]; log (dose) [M] -5.33,100%
same,viability at 2.19 µM,[3]; log (dose) [M] -5.66,105%
same,viability at 1 µM,[3]; log (dose) [M] -6,106%
same,viability at 0.468 µM,[3]; log (dose) [M] -6.33,107%
same,viability at 0.219 µM,[3]; log (dose) [M] -6.66,105%
same,viability at 0.1 µM,[3]; log (dose) [M] -7,114%
same,viability at 0.0468 µM,[3]; log (dose) [M] -7.33,126%
same,viability at 0.0219 µM,[3]; log (dose) [M] -7.66,61.5%
same,viability at 0.01 µM,[3]; log (dose) [M] -8,76%
